Assay results from US20250177548A1, “FUSOGENIC PEPTIDE COMPOSITIONS AND METHODS OF CARGO DELIVERY” (CLEMSON UNIVERSITY, priority 2022, published 2025).
Non-standard residues stand in square brackets, D forms with d. Residues, ends and D or L forms follow the SMILES beside them.

Key:
[1] = system: RNase A; test: gel assay of siRNA protection from RNase A degradation; assay type: in vitro ADME; conditions: 1 hour, several N:P ratios
Experimental: Gel Shift Assays. DIVA3, DIV3H, and DIV3W (all three denoted as DIV3 (X)) peptides suspended in RNase-free water (10 μM), were thawed, and kept on ice prior to complexation with 10 μM of negative control siGENOME non-targeting siRNA #5 (siNT, GE Healthcare Dharmacon, Lafayette, CO) in RNase-free water and incubated for 20 minutes at room temperature to allow the formation of DIV3 (X)-siNT complexes. Various molar ratios of peptides were complexed with siNT at increasing N:P molar ratios to determine the minimum molar ratio necessary to completely complex free siRNAs using an electrophoretic mobility shift assay. To determine the ability of each peptide variant to protect siRNAs from degradation, DIV3 (X)-siNT complexes or siNT alone was left untreated or incubated with either 50% v/v FBS or 5 μg/mL RNase A at 37° C. for one hour. Next, complexes were dissociated using 6% sodium dodecyl sulfate (SDS). Samples were added to a 2% agarose gel and run at 100 V. Gels were stained with ethidium bromide, destained with Milli-Q water, and imaged using a ChemiDoc XRS imager (Bio-Rad, Hercules, CA).
Characterization of Nanoparticle Size and Stability. To determine the minimum molar ratio necessary to completely complex free siRNAs, increasing N:P molar ratios of LHRH, DIV3W, and LHRH-DIV3W peptide were complexed with siRNAs and electrophoresed using a electrophoretic mobility shift assay. Molar ratios, shown as N:P, are representations of the molar amine peptide content in relation to 1 mole of phosphate group siRNA content. To determine the ability of the peptides to protect siRNAs from serum- or RNase-mediated degradation, LHRH and LHRH-DIV3W complexes were formed in RNase-free water with siNT at increasing N:P molar ratios and incubated at 37° C., 5% CO2, 50% v/v FBS, 5 μg/mL RNase A, or 50% v/v RNase free water for 1 hour. Peptide/siRNA complexes were dissociated using 6% sodium dodecyl sulfate (SDS) prior to electrophoresis in a 2% agarose gel run at 100 V. Gels were stained with ethidium bromide, washed with Milli-Q water, and imaged with a BioRad ChemiDoc XRS imager (BioRad, Hercules, CA).
Peptides VA-LD and GF-LD, comprising the cleavable linker VA or GLFG, respectively, between the LHRH target sequence and the DIV3W peptide, and non targeting siRNA were electrostatically complexed at increasing N:P ratios then subjected to agarose gel electrophoresis to determine optimal siRNA binding for each peptide. […] Peptide-siRNA nanocomplexes at increasing N:P ratios for peptides for VA-LD (FIG. 30A) and GF-LD (FIG. 30C) were incubated in either Rnase A enzyme or in 50% fetal bovine serum (FBS) for 1 h, dissociated using SDS then subjected to gel electrophoresis to visualize siRNA bands. Gels showing increasing N:P ratios of peptide:siRNA for VA-LD (FIG. 30B) and GF-LD (FIG. 30D) from 20:1 to 80:1 N:P; white bands are indicative of intact siRNA

[2] = dynamic light scattering, size and zeta potential of peptide/siRNA complexes; assay type: physicochemical
Experimental: Dynamic Light Scattering and Transmission Electron Microscopy. DIV3 (X)-siNT complexes were prepared at 2 mg/mL in RNase-free water. Hydrodynamic size and surface charge of the peptide/siRNA complexes were determined using a Nano ZS Zetasizer (Malvern Pananalytical, Malvern, UK). All data were recorded using Malvern's Zetasizer software.
To determine nanoparticle size and zeta potential, peptides resuspended in RNase-free water (10 μM) were thawed and kept on ice prior to complexation with 10 μM of siNT in RNase-free water and incubated for 20 minutes at room temperature to form DIV3W-siNT and LHRH-DIV3W-siNT complexes. Peptide complexes were prepared at 2 mg/mL in RNase-free water. Hydrodynamic size and surface charge analysis was conducted using a Malvern Nano ZS Zetasizer (Malvern Panalytical, Malvern, UK). All data was analyzed using Malvern's Zetasizer software.

[3] = system: MCF10a breast epithelial cells; test: MTS cell viability assay, healthy cells; assay type: cell-based; conditions: 48 h (FIG. 25: DIV3W-siNT complexes)
[4] = system: OVCAR3 cells; test: cellular uptake of labeled siRNA by flow cytometry; assay type: cell-based; conditions: for uptake efficiency: OVCAR3, siNT-DY547, 4 hours
Experimental: Cellular Uptake. OVCAR3 and CAOV3 cells were prepared at 50,000 cells per well in a 24-well plate. […] Post-incubation, media was aspirated and cells were washed with 1× PBS. To counterstain the nuclei, SuperSignal NucBlue Hoechst stain (Thermo Fisher, Waltham, MA) was added to the cells for 30 minutes, followed by an additional 1×PBS wash. Subsequent imaging was performed using an EVOS FL Microscope (Thermo Fisher) at 10× magnification. For flow cytometric analysis, cells were detached, resuspended in 1× PBS, and analyzed using an Attune NXT Acoustic flow cytometer (Invitrogen, Carlsbad, CA) with the blue laser line and BL2 (574/26 nm) channel.
Cellular Uptake and Targeting Specificity. Observation of cell uptake was performed by seeding OVCAR3 and CAOV3 cells at a density of 50,000 cells per well in a 24-well plate. LHRH and LHRH-DIV3W peptides were complexed with […] as previously described and delivered to cells at 20:1 to 80:1 N:P ratios. Each cell line was incubated with tandem peptide complexes for both 4- and 24-hour treatment periods. Following incubation, cell media was removed, and cells were washed with 1× PBS prior to the addition of 500 μL of 1×PBS and SuperSignal NucBlue Hoescht 33342 nuclear stain (Thermo Fisher, Waltham, MA). Cellular imaging was completed using an EVOS FL Microscope (Thermo Fisher) at 10×, 20×, and 40× magnification. Flow cytometry was completed after cell imaging and cells were trypsinized, resuspended in 1×PBS, and analyzed with an Attune NXT Acoustic Flow Cytometer (Invitrogen) with the red laser line and RL2 […] channel.

[5] = system: CSNK2A1 mRNA; test: qPCR of CSNK2A1 mRNA in OVCAR3 cells; assay type: cell-based; conditions: maximum; ratio and cell line not stated at the place
Experimental: (§1) qRT-PCR. Cells were seeded at 50,000 cells per well and treated with siRNA targeting CSNK2A1 (siCSNK2A1 #s3638, Thermo Fisher Scientific) at increasing N:P ratios and incubated for a total of 48 hours in McCoys 5A/DMEM-10% FBS. Treated cells were washed with 1×PBS at 24 hours and fresh media was added. RNAisolation was completed using a Qiagen Mini-RNeasy Kit (Qiagen, Hilden, Germany) according to the manufacturer's protocol. RNA isolation quality and quantity were measured through the Gen5 protocol using a Take3 plate (BioTek). RNA was reverse-transcribed using the QuantiTect Reverse Transcription kit (Qiagen). Quantitative real-time PCR was completed with a QuantStudio 3 qPCR system (Applied Biosystems) using Applied Biosystems TaqMan FAST Master Mix (Thermo Fisher) and CSNK2A1 (ID #Hs00751002_s1) and 18S (ID #Hs99999901_s1) predesigned TaqMan probes, according to the manufacturer's protocol.
Gene and Protein Knockdown. Bioactivity of siRNAs was determined via qPCR and western blot analysis. OVCAR3 or CAOV3 cells were seeded at 50,000 cells per well as previously described and treated with siRNA targeting CSNK2A1 and siNT at N:P ratios 30:1, 40:1, 50:1, 60:1, and 70:1. LHRH-DIV3W peptide complexed with either siNT or siCSNK2A1 was incubated for a total of 48 hours in RPMI 1640/DMEM-10% FBS, with one media exchange occurring after the 24-hour timepoint. Treated cells were washed with 1×PBS at 24 hours and fresh media was added. RNA isolation was completed using a Qiagen Mini-RNeasy Kit (Qiagen, Hilden, Germany) according to the manufacturer's protocol. RNA isolation quality and quantity was measured through the Gen5 protocol using a Take3 plate (BioTek). RNA was reverse transcribed using the QuantiTect Reverse Transcription kit (Qiagen) according to the manufacturer's protocol. Quantitative real-time PCR was completed with a QuantStudio 3 qPCR system (Applied Biosystems, Waltham, MA) using Applied Biosystems TaqMan FAST Master Mix (Thermo Fisher) and CSNK2A1 (ID #Hs00751002_s1) and 18S (ID #Hs99999901_s1) predesigned TaqMan probes according to the manufacturer's protocol.

[6] = system: CSNK2A1 mRNA; test: qPCR of CSNK2A1 mRNA in CAOV3 cells; assay type: cell-based; conditions: CAOV3, 48 hours, 80:1
Experimental: as §1

intact siRNA after incubation with RNase A [1]: Minimal degradation
hydrodynamic diameter ([2]; DIV3 (X) peptide/siRNA complex at 60:1 ratio): around 100 nm
zeta potential ([2]; DIV3 (X) peptide/siRNA complexes): ~30 mV
SMILES: CC[C@H](C)[C@H](NC(=O)[C@H](CC(=O)O)NC(=O)[C@H](C)NC(=O)[C@@H](NC(=O)[C@@H](NC(=O)[C@H](CC(=O)O)NC(=O)[C@H](Cc1c[nH]c2ccccc12)NC(=O)[C@@H](NC(=O)[C@@H](NC(=O)[C@H](CC(=O)O)NC(=O)[C@H](C)NC(=O)[C@@H](NC(=O)[C@@H](NC(=O)[C@H](CC(=O)O)NC(=O)[C@H](C)NC(=O)[C@H](CCC(=O)O)NC(=O)[C@@H](N)Cc1c[nH]c2ccccc12)[C@@H](C)CC)C(C)C)[C@@H](C)CC)C(C)C)[C@@H](C)CC)C(C)C)C(=O)N[C@H](C(=O)N[C@@H](C)C(=O)NCC(=O)NCC(=O)NCC(=O)N[C@H](CCCNC(=N)N)C(=O)N[C@H](CCCNC(=N)N)C(=O)N[C@H](CCCNC(=N)N)C(=O)N[C@H](CCCNC(=N)N)C(=O)N[C@H](CCCNC(=N)N)C(=O)N[C@H](CCCNC(=N)N)C(=O)N[C@H](CCCNC(=N)N)C(=O)N[C@H](CCCNC(=N)N)C(=O)N[C@H](CCCNC(=N)N)C(=O)O)C(C)C [DIV3W] (H-WEADIVADIVWDIVADIVAGGG[dR][dR][dR][dR][dR][dR][dR][dR][dR]-OH)
cytotoxicity in healthy cells [3]: no cytotoxic effects were observed
siRNA internalization efficiency ([4]; OVCAR3, at each N:P ratio): approximately 65%
uptake efficiency ([4]; 40:1): 70.0%
uptake efficiency ([4]; 60:1): 69.7%
uptake efficiency ([4]; 80:1): 66.6%
mRNA reduction [5]: up to 94%
CSNK2A1 mRNA knockdown, maximum [6]: 80%
